Active and inactive are the calls of the source. No cut-off for these calls is given here.
Assays:
HCC78 = test: cells; settings: Homo sapiens, HCC78, 72 h
Description: Cytotoxicity against human HCC78 cells incubated for 72 hrs by MTT assay

[1] = biological target: Tyrosine-protein kinase BTK (Homo sapiens, UniProt Q06187); test: Inhibition of N-terminal GST-tagged full length human BTK (2 to 659 residues) expressed in Baculovirus expression system using srctide as substrate incubated for 1 hr by mobility shift assay
Homo sapiens [2] = species: Homo sapiens; test: Selectivity index, ratio of IC50 for N-terminal GST-tagged full length human CDK4 (1 to 303 residues) to IC50 for N-terminal GST-tagged human ALK cytoplasmic domain (1058 to 1620 residues)
[3] = Half life in Sprague-Dawley rat at 10 mg/kg, po by UPLC/MS/MS analysis; assay type: ADME, organism-based; settings: in vivo
BaF3 [4] = test: cells; settings: Mus musculus, BaF3, 72 h
[5] = system: ALK tyrosine kinase receptor (Homo sapiens), Q9UM73 [G1202R]; test: Potency index, ratio of IC50 for ceritinib to IC50 for test compound for inhibition of N-terminal GST-tagged human ALK G1202R mutant cytoplasmic domain (1058 to 1620 residues) expressed in baculovirus expression system using srctide as substrate incubated for 1 hr by mobility shift assay
KARPAS-299 = test: cells; settings: Homo sapiens, KARPAS-299, 72 h
Description: Cytotoxicity against human KARPAS299 cells incubated for 72 hrs by MTT assay

[6] = biological target: Hepatocyte growth factor receptor (Homo sapiens, UniProt P08581); test: Inhibition of N-terminal GST-tagged human c-MET cytoplasmic domain (956 to 1390 residues) expressed in Baculovirus expression system using srctide as substrate incubated for 1 hr by mobility shift assay
[7] = Cmax in Sprague-Dawley rat at 2 mg/kg, iv by UPLC/MS/MS analysis; assay type: ADME, organism-based; set-up: dose 2 mg/kg, route intravenous; settings: in vivo
[8] = biological target: T1, ALK tyrosine kinase receptor (Homo sapiens, UniProt Q9UM73); test: Inhibition of ALK phosphorylation in human H2228 cells at 100 uM incubated for 24 hrs by Western blot analysis; assay type: cell-based
Target sequence in this assay (Q9UM73 19-1620 limits assumed): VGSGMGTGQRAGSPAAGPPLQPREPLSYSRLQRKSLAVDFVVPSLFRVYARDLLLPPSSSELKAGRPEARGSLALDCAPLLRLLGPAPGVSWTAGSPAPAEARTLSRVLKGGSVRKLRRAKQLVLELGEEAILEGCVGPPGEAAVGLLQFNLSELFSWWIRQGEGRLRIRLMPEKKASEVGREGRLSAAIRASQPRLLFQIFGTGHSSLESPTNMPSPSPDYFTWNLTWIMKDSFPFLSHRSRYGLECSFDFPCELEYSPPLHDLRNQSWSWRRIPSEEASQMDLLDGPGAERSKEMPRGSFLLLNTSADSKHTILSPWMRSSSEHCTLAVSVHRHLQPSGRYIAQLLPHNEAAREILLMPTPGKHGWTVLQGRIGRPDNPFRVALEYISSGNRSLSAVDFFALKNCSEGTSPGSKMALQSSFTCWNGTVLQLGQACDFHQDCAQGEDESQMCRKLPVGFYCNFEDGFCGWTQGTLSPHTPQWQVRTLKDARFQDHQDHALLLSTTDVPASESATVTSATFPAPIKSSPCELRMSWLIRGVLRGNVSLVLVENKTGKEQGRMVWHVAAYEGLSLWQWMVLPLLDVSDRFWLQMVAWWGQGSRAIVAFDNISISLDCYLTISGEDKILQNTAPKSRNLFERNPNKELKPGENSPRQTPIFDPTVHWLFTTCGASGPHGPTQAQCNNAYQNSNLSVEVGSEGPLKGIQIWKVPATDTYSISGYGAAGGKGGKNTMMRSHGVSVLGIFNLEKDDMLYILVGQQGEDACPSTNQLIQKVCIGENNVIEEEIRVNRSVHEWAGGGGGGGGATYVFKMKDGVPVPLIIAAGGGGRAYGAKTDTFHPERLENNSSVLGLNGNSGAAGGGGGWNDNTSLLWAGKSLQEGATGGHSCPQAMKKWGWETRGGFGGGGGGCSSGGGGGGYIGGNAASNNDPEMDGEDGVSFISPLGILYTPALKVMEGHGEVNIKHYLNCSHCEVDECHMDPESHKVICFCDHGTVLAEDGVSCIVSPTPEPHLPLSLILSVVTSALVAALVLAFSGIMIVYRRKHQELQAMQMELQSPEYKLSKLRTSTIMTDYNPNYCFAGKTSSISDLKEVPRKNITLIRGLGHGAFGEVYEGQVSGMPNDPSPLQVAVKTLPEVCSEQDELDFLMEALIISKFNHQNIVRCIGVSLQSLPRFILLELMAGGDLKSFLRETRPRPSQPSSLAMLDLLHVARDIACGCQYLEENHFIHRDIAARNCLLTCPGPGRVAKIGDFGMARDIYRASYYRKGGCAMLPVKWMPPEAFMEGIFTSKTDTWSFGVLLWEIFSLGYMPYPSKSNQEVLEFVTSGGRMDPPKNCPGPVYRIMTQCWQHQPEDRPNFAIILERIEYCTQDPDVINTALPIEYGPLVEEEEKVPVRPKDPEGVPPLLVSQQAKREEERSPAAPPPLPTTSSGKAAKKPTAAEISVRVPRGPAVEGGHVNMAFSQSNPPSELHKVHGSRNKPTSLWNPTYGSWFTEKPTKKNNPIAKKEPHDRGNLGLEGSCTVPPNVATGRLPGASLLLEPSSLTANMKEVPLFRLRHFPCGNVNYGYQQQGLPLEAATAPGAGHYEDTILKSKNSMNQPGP

Homo sapiens [9] = species: Homo sapiens; test: Selectivity index, ratio of IC50 for N-terminal GST-tagged human c-MET cytoplasmic domain (956 to 1390 residues) to IC50 for N-terminal GST-tagged human ALK cytoplasmic domain (1058 to 1620 residues)
[10] = AUCinfinity in Sprague-Dawley rat at 2 mg/kg, iv by UPLC/MS/MS analysis; assay type: ADME, organism-based; set-up: dose 2 mg/kg, route intravenous, time infinity; settings: in vivo
[11] = biological target: Tyrosine-protein kinase JAK2 (Homo sapiens, UniProt O60674); test: Inhibition of N-terminal GST-tagged human JAK2 catalytic domain (826 to 1132 residues) expressed in Baculovirus expression system using srctide as substrate incubated for 1 hr by mobility shift assay
[12] = biological target: Insulin-like growth factor 1 receptor (Homo sapiens, UniProt P08069); test: Inhibition of N-terminal GST-tagged human IGF1R cytoplasmic domain (959 to 1367 residues) expressed in baculovirus expression system using IRS1 as substrate incubated for 1 hr by mobility shift assay
[13] = biological target: ALK tyrosine kinase receptor (Homo sapiens, UniProt Q9UM73, G1202R)
Sequence of ALK tyrosine kinase receptor (Homo sapiens, UniProt Q9UM73, G1202R) (Q9UM73 19-1620 G1202R limits assumed): as the sequence (Q9UM73 19-1620 limits assumed) above, with G1184R counted along it

[14] = biological target: ALK tyrosine kinase receptor (Homo sapiens, UniProt Q9UM73, L1196M)
[15] = Tmax in Sprague-Dawley rat at 10 mg/kg, po by UPLC/MS/MS analysis; assay type: ADME, organism-based; settings: in vivo
[16] = biological target: Epidermal growth factor receptor (Homo sapiens, UniProt P00533)
Description: Inhibition of N-terminal GST-tagged human EGFR cytoplasmic domain (669 to 1210 residues) expressed in Baculovirus expression system using srctide as substrate incubated for 1 hr by mobility shift assay

[17] = AUCt in Sprague-Dawley rat at 10 mg/kg, po by UPLC/MS/MS analysis; assay type: ADME, organism-based; settings: in vivo
[18] = biological target: Cyclin-dependent kinase 4 (Homo sapiens, UniProt P11802); test: Inhibition of N-terminal GST-tagged full length human CDK4 (1 to 303 residues) expressed in Baculovirus expression system using DYRKtide F as substrate incubated for 1 hr by mobility shift assay
Homo sapiens [19] = species: Homo sapiens; test: Selectivity index, ratio of IC50 for FGFR (unknown origin) to IC50 for N-terminal GST-tagged human ALK cytoplasmic domain (1058 to 1620 residues)
A549 [20] = test: cells; settings: Homo sapiens, A549, 72 h
[21] = biological target: T1, ALK tyrosine kinase receptor; test: Inhibition of ALK phosphorylation in human H2228 cells incubated for 24 hrs by Western blot analysis; assay type: cell-based
Target sequence in this assay (Q9UM73 19-1620 limits assumed): as the sequence (Q9UM73 19-1620 limits assumed) above

Homo sapiens [22] = species: Homo sapiens; test: Selectivity index, ratio of IC50 for N-terminal GST-tagged human IGF1R cytoplasmic domain (959 to 1367 residues) to IC50 for N-terminal GST-tagged human ALK cytoplasmic domain (1058 to 1620 residues)
[23] = biological target: Proto-oncogene tyrosine-protein kinase receptor Ret (Homo sapiens, UniProt P07949); test: Inhibition of N-terminal GST-tagged human RET cytoplasmic domain (658 to 1114 residues) expressed in baculovirus expression system using CSKtide as substrate incubated for 1 hr by mobility shift assay
Sequence of Proto-oncogene tyrosine-protein kinase receptor Ret (P07949 whole entry, the tested form may be a part): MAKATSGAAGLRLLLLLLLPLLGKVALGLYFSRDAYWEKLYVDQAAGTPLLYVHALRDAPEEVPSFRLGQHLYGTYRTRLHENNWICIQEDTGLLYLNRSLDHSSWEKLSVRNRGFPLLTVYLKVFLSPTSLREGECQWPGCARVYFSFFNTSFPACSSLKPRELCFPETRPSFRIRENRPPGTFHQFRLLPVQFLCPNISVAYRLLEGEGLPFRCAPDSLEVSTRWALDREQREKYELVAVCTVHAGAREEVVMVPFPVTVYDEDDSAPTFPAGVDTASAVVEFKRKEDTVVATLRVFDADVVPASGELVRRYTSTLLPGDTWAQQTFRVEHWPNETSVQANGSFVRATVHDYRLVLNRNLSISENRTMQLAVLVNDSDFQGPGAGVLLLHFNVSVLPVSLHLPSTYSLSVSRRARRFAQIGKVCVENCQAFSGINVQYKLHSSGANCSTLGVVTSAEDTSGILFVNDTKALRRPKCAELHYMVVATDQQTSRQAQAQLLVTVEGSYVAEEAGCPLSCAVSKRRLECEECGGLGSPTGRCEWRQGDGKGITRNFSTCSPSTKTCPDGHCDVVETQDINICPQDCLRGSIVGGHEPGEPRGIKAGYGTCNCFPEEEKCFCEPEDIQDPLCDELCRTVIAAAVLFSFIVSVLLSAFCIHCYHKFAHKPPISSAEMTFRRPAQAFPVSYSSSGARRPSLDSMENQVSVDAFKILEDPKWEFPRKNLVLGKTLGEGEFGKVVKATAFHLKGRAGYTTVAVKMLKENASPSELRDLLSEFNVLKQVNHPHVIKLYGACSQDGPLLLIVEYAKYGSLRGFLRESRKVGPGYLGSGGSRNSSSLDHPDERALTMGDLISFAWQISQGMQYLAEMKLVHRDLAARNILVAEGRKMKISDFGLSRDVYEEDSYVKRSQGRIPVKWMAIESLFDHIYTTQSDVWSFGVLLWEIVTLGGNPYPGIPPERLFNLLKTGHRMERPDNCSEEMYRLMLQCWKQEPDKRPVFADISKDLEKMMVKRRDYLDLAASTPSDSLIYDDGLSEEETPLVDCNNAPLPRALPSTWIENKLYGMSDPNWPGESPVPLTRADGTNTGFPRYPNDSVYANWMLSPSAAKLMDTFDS

A549 [24] = test: cells; settings: Homo sapiens, A549, 72 h; remark: listed apart in the source
Description: Cytotoxicity against human A549 cells incubated for 72 hrs by MTT assay

[25] = biological target: Fibroblast growth factor receptor (Homo sapiens, UniProt P22607+P11362+P22455+P21802); test: Inhibition of FGFR (unknown origin) incubated for 1 hr by mobility shift assay; assay type: protein assay
NCI-H2228 = test: cells; settings: Homo sapiens, NCI-H2228, 72 h
Description: Cytotoxicity against human NCI-H2228 cells incubated for 72 hrs by MTT assay

[26] = Oral bioavailability in Sprague-Dawley rat at 10 mg/kg by UPLC/MS/MS analysis; assay type: ADME, organism-based; settings: in vivo
[27] = AUCinfinity in Sprague-Dawley rat at 10 mg/kg, po by UPLC/MS/MS analysis; assay type: ADME, organism-based; set-up: dose 10 mg/kg, route oral, time infinity; settings: in vivo
[28] = Half life in Sprague-Dawley rat at 2 mg/kg, iv by UPLC/MS/MS analysis; assay type: ADME, organism-based; settings: in vivo
[29] = biological target: T1, ALK tyrosine kinase receptor
Description: Inhibition of N-terminal GST-tagged human ALK cytoplasmic domain (1058 to 1620 residues) expressed in Baculovirus expression system using srctide as substrate incubated for 1 hr by mobility shift assay

[30] = AUCt in Sprague-Dawley rat at 2 mg/kg, iv by UPLC/MS/MS analysis; assay type: ADME, organism-based; settings: in vivo
[31] = biological target: T2, Proto-oncogene tyrosine-protein kinase ROS (Homo sapiens, UniProt P08922)
T2 sequence (P08922 whole entry): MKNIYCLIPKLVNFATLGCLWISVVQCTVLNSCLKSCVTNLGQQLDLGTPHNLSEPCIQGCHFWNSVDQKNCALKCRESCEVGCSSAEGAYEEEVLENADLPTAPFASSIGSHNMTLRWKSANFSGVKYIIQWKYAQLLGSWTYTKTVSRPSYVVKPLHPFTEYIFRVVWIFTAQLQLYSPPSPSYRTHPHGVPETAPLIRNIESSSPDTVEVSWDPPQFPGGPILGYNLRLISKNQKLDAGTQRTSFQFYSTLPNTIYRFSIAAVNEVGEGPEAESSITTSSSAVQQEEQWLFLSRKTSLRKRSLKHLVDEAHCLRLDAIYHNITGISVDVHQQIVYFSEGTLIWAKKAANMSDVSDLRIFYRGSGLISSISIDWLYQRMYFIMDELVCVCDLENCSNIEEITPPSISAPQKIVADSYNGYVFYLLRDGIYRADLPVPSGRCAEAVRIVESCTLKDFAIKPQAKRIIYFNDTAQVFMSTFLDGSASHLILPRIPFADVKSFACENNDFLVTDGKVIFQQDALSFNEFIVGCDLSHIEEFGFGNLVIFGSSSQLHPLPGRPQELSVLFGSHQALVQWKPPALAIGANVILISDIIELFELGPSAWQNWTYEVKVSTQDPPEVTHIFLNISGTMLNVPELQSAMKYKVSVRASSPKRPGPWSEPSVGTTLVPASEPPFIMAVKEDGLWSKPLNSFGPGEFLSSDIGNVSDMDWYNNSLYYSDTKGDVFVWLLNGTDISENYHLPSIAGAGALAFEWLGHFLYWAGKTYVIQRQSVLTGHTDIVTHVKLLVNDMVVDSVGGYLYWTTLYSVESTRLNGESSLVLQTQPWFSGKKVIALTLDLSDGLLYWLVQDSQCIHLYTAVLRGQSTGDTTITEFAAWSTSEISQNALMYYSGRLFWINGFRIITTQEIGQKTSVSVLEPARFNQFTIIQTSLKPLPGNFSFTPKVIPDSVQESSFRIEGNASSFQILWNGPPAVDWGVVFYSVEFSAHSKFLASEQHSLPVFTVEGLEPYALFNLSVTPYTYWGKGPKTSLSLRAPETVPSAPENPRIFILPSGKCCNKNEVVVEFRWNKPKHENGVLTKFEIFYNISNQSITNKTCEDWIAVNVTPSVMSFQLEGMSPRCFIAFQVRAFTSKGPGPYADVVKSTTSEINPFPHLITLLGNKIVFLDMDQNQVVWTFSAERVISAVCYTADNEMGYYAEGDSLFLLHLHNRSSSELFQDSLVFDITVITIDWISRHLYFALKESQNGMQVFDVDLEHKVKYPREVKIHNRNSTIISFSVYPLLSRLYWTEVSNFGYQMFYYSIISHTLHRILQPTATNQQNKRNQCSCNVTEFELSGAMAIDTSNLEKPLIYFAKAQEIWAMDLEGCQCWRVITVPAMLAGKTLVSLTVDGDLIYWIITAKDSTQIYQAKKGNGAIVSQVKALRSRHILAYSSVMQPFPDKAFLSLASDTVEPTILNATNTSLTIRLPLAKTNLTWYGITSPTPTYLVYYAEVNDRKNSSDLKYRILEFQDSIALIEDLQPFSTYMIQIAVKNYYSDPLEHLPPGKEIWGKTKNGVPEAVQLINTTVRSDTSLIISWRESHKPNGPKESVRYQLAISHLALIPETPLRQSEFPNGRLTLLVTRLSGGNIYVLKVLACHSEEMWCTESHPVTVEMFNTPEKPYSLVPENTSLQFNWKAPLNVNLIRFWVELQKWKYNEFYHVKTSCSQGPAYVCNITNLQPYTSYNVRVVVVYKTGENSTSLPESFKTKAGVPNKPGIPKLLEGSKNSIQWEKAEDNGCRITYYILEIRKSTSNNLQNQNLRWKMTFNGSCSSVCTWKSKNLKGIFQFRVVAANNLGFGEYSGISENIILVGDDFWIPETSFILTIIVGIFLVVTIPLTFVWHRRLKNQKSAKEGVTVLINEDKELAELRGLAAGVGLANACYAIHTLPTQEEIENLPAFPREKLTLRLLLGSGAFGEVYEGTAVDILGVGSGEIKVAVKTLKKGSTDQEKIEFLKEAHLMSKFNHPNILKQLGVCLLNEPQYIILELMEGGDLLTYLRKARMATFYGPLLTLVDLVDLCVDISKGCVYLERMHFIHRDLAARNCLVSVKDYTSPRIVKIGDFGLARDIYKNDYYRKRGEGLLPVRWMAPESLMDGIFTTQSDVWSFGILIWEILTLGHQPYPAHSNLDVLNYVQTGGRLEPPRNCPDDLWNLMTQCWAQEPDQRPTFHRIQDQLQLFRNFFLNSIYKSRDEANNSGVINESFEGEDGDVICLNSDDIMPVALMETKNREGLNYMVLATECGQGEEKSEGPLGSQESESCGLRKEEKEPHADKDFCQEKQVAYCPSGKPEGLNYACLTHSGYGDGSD
Description: Inhibition of N-terminal GST-tagged human ROS1 cytoplasmic domain (1883 to 2347 residues) expressed in Baculovirus expression system using IRS1 as substrate incubated for 1 hr by mobility shift assay

[32] = Biovailability in Sprague-Dawley rat at 2 mg/kg, iv by UPLC/MS/MS analysis; assay type: ADME, organism-based; settings: in vivo
[33] = Volume of distribution in Sprague-Dawley rat at 2 mg/kg, iv by UPLC/MS/MS analysis; assay type: ADME, organism-based; settings: in vivo
in vivo = settings: Sprague-Dawley, rat, po, 10 mg/kg
[34] = biological target: T2, Proto-oncogene tyrosine-protein kinase ROS; remark: listed apart in the source
[35] = Inhibition of PI3K (unknown origin) incubated for 1 hr by mobility shift assay; set-up: species or system Homo sapiens
BaF3 [36] = test: cells; settings: Mus musculus, BaF3, 72 h; remark: listed apart in the source
Description: Cytotoxicity against mouse BA/F3 cells incubated for 72 hrs by MTT assay

COc1cc(N2CCN(CCN(C)C)C2=O)ccc1Nc1ncc(Cl)c(Nc2ccccc2S(=O)(=O)C(C)C)n1
IC50 (HCC78): 0.029 µM | IC50 [1]: > 1 µM | Ratio IC50 (Homo sapiens [2]): 348 | half-life [3]: 7.4 h | IC50 (BaF3 [4]): 0.034 µM | Ratio IC50 [5]: 30 | IC50 (KARPAS-299): 0.014 µM | IC50 [6]: 0.213 µM | Cmax [7]: 252 ng/mL | inhibition [8]: Active | Ratio IC50 (Homo sapiens [9]): 178 | AUC [10]: 1965.3 ng·h/mL | IC50 [11]: > 1 µM | IC50 [12]: 0.109 µM | IC50 [13]: 0.0067 µM | IC50 [14]: 0.00073 µM | Tmax [15]: 5.3 h | IC50 [16]: > 1 µM | AUC(0-t) [17]: 3420 ng·h/mL | IC50 [18]: 0.417 µM | Ratio IC50 (Homo sapiens [19]): 477 | IC50 (A549 [20]): 0.073 µM | inhibition [21]: Dose-dependent effect | Ratio IC50 (Homo sapiens [22]): 91 | IC50 [23]: > 1 µM | IC50 (A549 [24]): > 5 µM | IC50 [25]: 0.573 µM | IC50 (NCI-H2228): 0.037 µM | bioavailability [26]: 23% | AUC(0-inf) [27]: 4510 ng·h/mL | half-life [28]: 6.9 h | IC50 [29]: 0.0012 µM | AUC(0-t) [30]: 1690 ng·h/mL | IC50 [31]: 0.00043 µM | F [32]: 100% | Vd [33]: 9.93 L/kg | Cmax (in vivo): 297 ng/mL | Ratio IC50 [34]: 7 | IC50 [35]: > 1 µM | IC50 (BaF3 [36]): 3.13 µM
